Target: T1, human NAD+-dependent 15-hydroxyprostaglandin dehydrogenase (HPGD, 15-PGDH) (Homo sapiens, UniProt P15428)
T1 sequence (P15428 1-266): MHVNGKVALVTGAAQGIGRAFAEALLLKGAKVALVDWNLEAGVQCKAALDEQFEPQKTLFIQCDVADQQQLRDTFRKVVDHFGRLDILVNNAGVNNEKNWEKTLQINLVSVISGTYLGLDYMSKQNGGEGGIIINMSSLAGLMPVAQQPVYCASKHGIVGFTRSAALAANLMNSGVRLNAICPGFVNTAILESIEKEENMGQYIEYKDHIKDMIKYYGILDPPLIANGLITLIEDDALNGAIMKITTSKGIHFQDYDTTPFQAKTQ
Test: HPGD HTS enzymatic assay
Assay type: biochemical

decrease in HPGD activity relative to ML148: 20 fold
Structure (SMILES): Cc1cccc(-n2cnc3cc(C(=O)N4CCCC4)ccc32)c1 [Compound 11i]
